Columns and labels:
[1] = tested on: Nalm-6 cells expressing firefly luciferase; assay: Nalm-6 disseminated tumor xenograft mouse model, inhibitor in drinking water with suboptimal anti-CD19 CAR T dose; format: in vivo, NSG mice
Procedure: To permit assessment of the effect of a combination therapy with the inhibitor, a suboptimal dose of anti-CD19 CAR T cells was i.v. injected into the mice at 5×10^5/mouse at day 5. As a control, mice were administered the vehicle control without administration of the CAR-T cells or inhibitor.
Following treatment as described above, the tumor growth and percent survival of treated mice was determined.

[2] = molecular target: T1, Itk (Homo sapiens, UniProt Q08881); details: reported, Byrd et al. 2016; cited from earlier work
T1 sequence (Q08881 1-620): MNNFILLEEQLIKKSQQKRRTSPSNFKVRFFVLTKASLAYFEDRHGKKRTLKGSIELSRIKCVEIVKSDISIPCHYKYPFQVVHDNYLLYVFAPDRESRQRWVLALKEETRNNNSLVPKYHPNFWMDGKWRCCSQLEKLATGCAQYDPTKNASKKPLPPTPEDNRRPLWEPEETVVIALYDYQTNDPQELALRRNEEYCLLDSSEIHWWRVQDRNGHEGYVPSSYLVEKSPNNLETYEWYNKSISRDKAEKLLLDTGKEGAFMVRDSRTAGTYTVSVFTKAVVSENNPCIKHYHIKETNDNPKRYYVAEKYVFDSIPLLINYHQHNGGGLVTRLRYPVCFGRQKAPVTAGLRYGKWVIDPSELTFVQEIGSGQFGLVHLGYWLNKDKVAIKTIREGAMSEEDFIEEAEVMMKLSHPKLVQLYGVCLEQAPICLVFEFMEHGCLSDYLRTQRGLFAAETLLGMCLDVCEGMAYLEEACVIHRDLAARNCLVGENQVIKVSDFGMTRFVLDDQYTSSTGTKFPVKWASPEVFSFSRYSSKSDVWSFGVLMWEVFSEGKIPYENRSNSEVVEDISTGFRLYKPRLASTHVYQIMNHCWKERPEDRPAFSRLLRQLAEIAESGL

[3] = tested on: anti-CD19 CAR T cells; assay: Expression of CAR-T cell surface markers over 4 days after stimulation with irradiated K562-CD19 (flow cytometry); format: cell-based, human; details: four days after initial stimulation
Source text: To generate CAR-expressing T cells, T cells were isolated by immunoaffinity-based enrichment from three healthy human donor subjects, and cells from each donor were activated and transduced with a viral vector encoding an anti-CD19 CAR. The CAR contained an anti-CD19 scFv, an Ig-derived spacer, a human CD28-derived transmembrane domain, a human 4-1BB-derived intracellular signaling domain and a human CD3 zeta-derived signaling domain. The nucleic acid construct encoding the CAR also included a truncated EGFR (tEGFR) sequence for use as a transduction marker, separated from the CAR sequence by a self-cleaving T2A sequence.
CAR-expressing CD4+ and CD8+ cells were mixed 1:1 for each donor, individually, and the pooled cells for each donor assessed in vitro under various conditions.
CAR-T cells generated as described above were plated at 100,000 cells/well on 96 well Poly-D-Lysine coated plates. Irradiated K562-CD19 target cells were added at an effector to target ratio of 2.5:1.

[4] = tested on: anti-CD19 CAR T cells; assay: Cytokine production by anti-CD19 CAR T cells co-cultured with irradiated K562-CD19 (MSD); format: cell-based, human
Procedure: CAR-T cells generated as described above were plated at 100,000 cells/well on 96 well Poly-D-Lysine coated plates. Irradiated target cells (K562-CD19) were added at an effector to target ratio of 2.5:1. […] Culture supernatants were harvested at day 2, 3 or 4, and IFNγ, IL-2 and TNFa were measured from the culture supernatants using cytokine kits from Meso Scale Discovery (MSD).

## CC#CC(=O)N1CCC[C@H]1c1nc(-c2ccc(C(=O)Nc3ccccn3)cc2)c2c(N)nccn12 [compound of Formula (II)]
[1]; with CAR T, drinking water 25 mg/kg/day
  tumor growth compared with CAR T administered with vehicle alone: significantly (P<0.001) decreased tumor growth
[1]; with CAR-T cells, drinking water 25 mg/kg/day from day 4, p<0.001
  median survival compared to suboptimal anti-CD19 CAR T cell dose+vehicle: increased median survival
[2]
  lower affinity for ITK compared with ibrutinib: > 200 times
[3]
  phenotype of cells as central (TCM) or effector (TEM) memory subsets by CCR7 and CD45RA: did not affect the phenotype of cells as central (TCM) or effector (TEM) memory subsets
[4]; overall, three donors, culture supernatants, ibrutinib 0.5-500 nM, Formula (II) 50-5000 nM
  CAR T cytokine production (IFNγ, IL-2, TNFα) following stimulation with K562.CD19 cells: did not inhibit CAR T cytokine production
[4]; some donors, compound of Formula (II)
  cytokine production: modestly increased cytokine production in some donors
